Numbered stars: 1 amine (or outer) side, 2 acyl side, 3 side chain; on linkers, the order of the positions; unused ones are H or OH. Bridge positions count the residues as written; N and C are the ends. Square brackets hold non-standard residues; d marks the D form. Peptide text beside a SMILES is read from it. NH(CH2)9CO = O=C(CCCCCCCCCN[*:1])[*:2]
Experiments:
His-EGF(A)-Fc = His-EGF(A)-Fc TR-FRET counterscreen; details: TR-FRET counterscreen; Table 8D; * = some inhibition at highest concentrations, not sufficient to fit an IC50
PCSK9Δhelix = biological target: T1, PCSK9Δhelix (Homo sapiens, UniProt Q8NBP7); experiment: PCSK9Δhelix/Ab20 TR-FRET binding assay; details: for IC50: TR-FRET, Table 8D, disulfide-cyclized extension peptides, read-out: PCSK9Δhelix/Ab20 IC50
T1 construct: Human PCSK9 construct M1-Q692 with an engineered TEV site (residue deletion Y166, R167); made in house; host or cells: CHO
T1 sequence (Q8NBP7 with tags, fused parts or gaps limits assumed): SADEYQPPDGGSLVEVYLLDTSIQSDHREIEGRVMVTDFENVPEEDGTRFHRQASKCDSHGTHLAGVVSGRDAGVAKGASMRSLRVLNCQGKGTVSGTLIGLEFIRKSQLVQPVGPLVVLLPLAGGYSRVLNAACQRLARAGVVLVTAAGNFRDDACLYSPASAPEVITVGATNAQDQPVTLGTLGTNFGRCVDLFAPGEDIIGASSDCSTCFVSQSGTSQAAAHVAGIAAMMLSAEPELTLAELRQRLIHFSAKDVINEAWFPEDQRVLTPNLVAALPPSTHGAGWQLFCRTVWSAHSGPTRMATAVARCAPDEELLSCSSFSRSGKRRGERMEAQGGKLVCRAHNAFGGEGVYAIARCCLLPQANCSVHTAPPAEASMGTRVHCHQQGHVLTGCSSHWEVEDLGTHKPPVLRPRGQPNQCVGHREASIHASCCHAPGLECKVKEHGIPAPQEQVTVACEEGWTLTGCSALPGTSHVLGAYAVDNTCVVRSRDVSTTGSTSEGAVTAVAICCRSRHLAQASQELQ
T1 sequence (Q8NBP7 31-152 partner limits assumed): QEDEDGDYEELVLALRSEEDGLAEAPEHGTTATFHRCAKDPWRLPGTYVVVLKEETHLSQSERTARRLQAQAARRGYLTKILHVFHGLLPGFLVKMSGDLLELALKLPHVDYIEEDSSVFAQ
Protocol: The former was based on a TF-FRET assay to measure the association of the EGF(A) domain of the LDLR to PCSK9 (“PCSK9/EGF(A) binding assay”) whilst the latter was based on a TR-FRET assay to measure binding of Ab20 to PCSK9Δhelix (“PCSK9Δhelix/Ab20 binding assay”).
The ability of compounds to inhibit binding to PCSK9 was evaluated with a panel of time-resolved fluorescence resonance energy transfer (TR-FRET) binding assays. […] The PCSK9Δhelix/Ab20 binding assay evaluated the ability of compounds to compete with Ab20 for binding to the N-terminal groove region in a His-tagged, PCSK9Δhelix construct. […] Signal generation in the PCSK9 binding assays was dependent upon the binding interaction to bring into close proximity the His-tag on the PCSK9 and the Fc-tag on the ligand. Anti-His-APC was bound to the His-tag, and anti-Fc-europium was bound to the Fc-tag. When these two antibodies were in close proximity and were irradiated with light at 340 nm, the europium was excited and emitted energy at 615 nm. This energy was taken up by the APC and was emitted as light at 665 nm. Compounds that competed with the ligand reduced the energy transfer and thus the emission at 665 nm. In the His-EGFA-Fc molecule in the counterscreen, the two tags were always in close proximity, thus any reduction in emission at 665 nm was due to interference with the detection system.
Compounds were solubilized and dilutions were prepared in DMSO. […] The plate was centrifuged to mix the well contents and allowed to incubate for 30 min. […] The TR-FRET signal was read on a ViewLux reader (PerkinElmer) with excitation at 340 nm and emission at 615 and 665 nm with a 50-μs time delay between excitation and measurement of emission. The TR-FRET ratio was calculated as the fluorescence emission at 665 nm divided by the fluorescence emission at 615 nm. The normalized TR-FRET ratios were plotted as a function of the compound concentrations, and the IC50 values were determined using a 4-parameter logistic regression.
In black 1536-well assay plates (MaKO, Aurora® Microplates, Whitefish, Mont.), 40 nL of peptide in DMSO were preincubated with 2 μL His-tagged PCSK9 plus anti-His-allophycocyanin in assay buffer (50 mM Tris-HCl, pH 7.5, 150 mM NaCl, 2 mM CaCl2, 0.01% Tween®-20, 0.1% bovine gamma globulins, and protease inhibitor cocktail) for 30 min. Then 2 μL of Fc-tagged ligand and anti-Fc-europium in assay buffer were added and allowed to incubate for 2 h.

PCSK9 = PCSK9 (Homo sapiens, UniProt Q8NBP7); experiment: PCSK9/EGF(A) TR-FRET binding assay; details: TR-FRET; Table 8D, disulfide-cyclized extension peptides; read-out: PCSK9/EGF(A) IC50
Sequence of PCSK9 (Q8NBP7 153-692): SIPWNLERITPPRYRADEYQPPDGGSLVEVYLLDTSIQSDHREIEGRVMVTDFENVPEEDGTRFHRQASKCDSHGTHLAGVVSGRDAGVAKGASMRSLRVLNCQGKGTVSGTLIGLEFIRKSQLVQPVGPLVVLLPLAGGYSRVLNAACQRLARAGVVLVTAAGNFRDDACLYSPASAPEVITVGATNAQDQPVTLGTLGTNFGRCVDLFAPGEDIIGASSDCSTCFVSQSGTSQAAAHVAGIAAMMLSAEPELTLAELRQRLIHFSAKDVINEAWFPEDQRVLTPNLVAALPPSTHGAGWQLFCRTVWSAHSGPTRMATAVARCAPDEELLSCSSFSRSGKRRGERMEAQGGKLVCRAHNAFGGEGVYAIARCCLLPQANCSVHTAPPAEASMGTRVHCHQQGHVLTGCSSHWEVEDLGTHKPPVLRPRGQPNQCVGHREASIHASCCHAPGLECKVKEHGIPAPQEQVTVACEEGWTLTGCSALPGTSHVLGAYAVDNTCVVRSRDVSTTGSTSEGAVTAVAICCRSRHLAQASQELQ
Sequence of PCSK9 (Q8NBP7 31-152 partner limits assumed): as the sequence (Q8NBP7 31-152 partner limits assumed) above

| SMILES | IC50 (His-EGF(A)-Fc) | IC50 (PCSK9Δhelix) | IC50 (PCSK9) | inhibition in the PCSK9Δhelix/Ab20 binding assay (PCSK9Δhelix) |
| --- | --- | --- | --- | --- |
| CC[C@H](C)[C@@H]1NC(=O)[C@H](CCCNC(=N)N)NC(=O)[C@H](CCC(N)=O)NC(=O)[C@H](CC(C)C)NC(=O)[C@H](C)NC(=O)[C@H](Cc2c[nH]c3ccccc23)NC(=O)[C@@H]2CCCN2C(=O)[C@H](CC(C)C)NC(=O)[C@H](CCCNC(=N)N)NC(=O)[C@@H](NC(C)=O)CSSC[C@@H](C(N)=O)NC(=O)[C@@H]2CCCN2C(=O)[C@H](CC(C)C)NC(=O)CNC1=O [Compound 75] (Ac-CRLPWALQRIGLPC-NH2; disulfide 1-14) | > 50 µM | 49.5 µM | > 50 µM | – |
| CC[C@H](C)[C@@H]1NC(=O)[C@H](CCCNC(=N)N)NC(=O)[C@H](CCC(N)=O)NC(=O)[C@H](CC(C)C)NC(=O)[C@H](CC(N)=O)NC(=O)[C@H](C)NC(=O)[C@@H]2CCCN2C(=O)[C@H](CC(C)C)NC(=O)[C@H](CCCNC(=N)N)NC(=O)[C@@H](NC(C)=O)CSSC[C@@H](C(N)=O)NC(=O)[C@@H]2CCCN2C(=O)[C@H](CC(C)C)NC(=O)CNC1=O [Compound 76] (Ac-CRLPANLQRIGLPC-NH2; disulfide 1-14) | > 50 µM | 49.5 µM | > 50 µM | – |
| CC[C@H](C)[C@@H]1NC(=O)[C@H](CCCNC(=N)N)NC(=O)[C@H](CCC(N)=O)NC(=O)[C@H](CC(C)C)NC(=O)[C@H](CC(N)=O)NC(=O)[C@H](Cc2c[nH]c3ccccc23)NC(=O)[C@H](C)NC(=O)[C@H](CC(C)C)NC(=O)[C@H](CCCNC(=N)N)NC(=O)[C@@H](NC(C)=O)CSSC[C@@H](C(N)=O)NC(=O)[C@@H]2CCCN2C(=O)[C@H](CC(C)C)NC(=O)CNC1=O [Compound 77] (Ac-CRLAWNLQRIGLPC-NH2; disulfide 1-14) | > 50 µM | 6.02 µM | > 50 µM | – |
| CC[C@H](C)[C@@H]1NC(=O)[C@H](CCCNC(=N)N)NC(=O)[C@H](CCC(N)=O)NC(=O)[C@H](CC(C)C)NC(=O)[C@H](CC(N)=O)NC(=O)[C@H](Cc2c[nH]c3ccccc23)NC(=O)[C@@H]2CCCN2C(=O)[C@H](C)NC(=O)[C@H](CCCNC(=N)N)NC(=O)[C@@H](NC(C)=O)CSSC[C@@H](C(N)=O)NC(=O)[C@@H]2CCCN2C(=O)[C@H](CC(C)C)NC(=O)CNC1=O [Compound 78] (Ac-CRAPWNLQRIGLPC-NH2; disulfide 1-14) | > 50 µM | 5.56 µM | > 50 µM | – |
| CC[C@H](C)[C@@H]1NC(=O)[C@H](CCCNC(=N)N)NC(=O)[C@H](CCC(N)=O)NC(=O)[C@H](CC(C)C)NC(=O)[C@H](CC(N)=O)NC(=O)[C@H](Cc2c[nH]c3ccccc23)NC(=O)[C@@H]2CCCN2C(=O)[C@H](CC(C)C)NC(=O)[C@H](C)NC(=O)[C@@H](NC(C)=O)CSSC[C@@H](C(N)=O)NC(=O)[C@@H]2CCCN2C(=O)[C@H](CC(C)C)NC(=O)CNC1=O [Compound 79] (Ac-CALPWNLQRIGLPC-NH2; disulfide 1-14) | > 50 µM | 1.53 µM | > 50 µM | – |
| CC[C@H](C)[C@@H]1NC(=O)[C@H](CCCNC(=N)N)NC(=O)[C@H](CCC(N)=O)NC(=O)[C@H](CC(C)C)NC(=O)[C@H](CC(N)=O)NC(=O)[C@H](Cc2c[nH]c3ccccc23)NC(=O)[C@@H]2CCCN2C(=O)[C@H](CC(C)C)NC(=O)[C@H](CCCNC(=N)N)NC(=O)[C@@H](NC(C)=O)CSSC[C@@H](C(N)=O)NC(=O)CNC(=O)CNC(=O)CNC1=O [Compound 81] (Ac-CRLPWNLQRIGGGC-NH2; disulfide 1-14) | > 50 µM | 28.8 µM | > 50 µM | – |
| CC(=O)N[C@H]1CSSC[C@@H](C(N)=O)NC(=O)CCCCCCCCCNC(=O)[C@H](CCCNC(=N)N)NC(=O)[C@H](CCC(N)=O)NC(=O)[C@H](CC(C)C)NC(=O)[C@H](CC(N)=O)NC(=O)[C@H](Cc2c[nH]c3ccccc23)NC(=O)[C@@H]2CCCN2C(=O)[C@H](CC(C)C)NC(=O)[C@H](CCCNC(=N)N)NC1=O [Compound 84] (Ac-CRLPWNLQR[NH(CH2)9CO]C-NH2; disulfide 1-11) | > 50 µM | > 50 µM | > 50 µM | removes inhibition |

Source: patent US11034725B2, “Compositions and methods for treating cardiovascular disease” (Genentech, Inc., priority 2016, dated 2021)
